Measured values from patent publication US20240067632A1, “WEE1 Degrading Compounds and Uses Thereof” (Bristol-Myers Squibb Company, priority 2022, published 2024).
Like-named read-outs stand apart in the source and are kept apart here.

Columns and labels:
WEE1 = molecular target: T1, WEE1 (Homo sapiens, UniProt P30291+Q96SW2); experiment: WEE1-ePL degradation assay (LentiX-WEE1-ePL-GSPT1-ND cells, InCELL Hunter luminescence, 4 h); format: cell-based; conditions: 293T-LentiX WEE1-ePL cells; for DC50: read-out: 293T-LentiX WEE1-ePL Degradation 4 hr (EC50)
T1 construct: C-terminal ePL-tagged (DiscoverX, Fremont, CA) full-length WEE1 expression construct; expressed in transfected cells; host or cells: LentiX-HEK293T (Invitrogen), lentiviral transduction; co-expressing GSPT1-GN (G576N, lacking the first 158 amino acids)
Procedure, shortened: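 Luminescent readout (InCELL Hunter, 30 min RT) of WEE1-ePL levels in transduced HEK293T cells after 4 h compound exposure at 37 °C. Dosing: 10 points, 3-fold steps, top 1 uM or 10 uM. EC50 from four-parameter logistic fit; Ymax set by DMSO.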

MKN45 cells = experiment: MKN45 cell proliferation assay (Cell-Titer-Glo, 120 h); format: cell-based; conditions: for EC50: Cell-Titer-Glo, read-out: MKN45 Cell Prolif. 120 hr (EC50); for MKN45 Cell Prolif. 120 hr (Ymin-Obs): minimal percent of DMSO control observed in the concentrations tested
Procedure, shortened: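 Growth inhibition was read as blank-corrected Cell-Titer-Glo luminescence expressed as percent DMSO control after 120 h at 37 C, 400 cells/well. Compounds tested in triplicate as 10-point half-log series from 1 or 10 uM, 0.1% DMSO; four-parameter fit gave EC50, and lowest observed percent control was reported as Ymin-obs.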

[1] = lower limit of the fit (0 = luciferase inhibitor, Ymax = DMSO control)
[2] = Homo sapiens, MKN-45, 120 h, growth inhibition

| SMILES | 293T-LentiX WEE1-ePL Degradation 4 hr (Ymin) (WEE1; [1]) | DC50 (WEE1) | EC50 (MKN45 cells; [2]) | EC50 (MKN45 cells; growth inhibition) | 293T-LentiX WEE1-ePL Degradation 4 hr (Ymin) (WEE1; lower limit of the fit (Ymin=0 luciferase inhibitor, Ymax DMSO control)) | EC50 (MKN45 cells; Homo sapiens, MKN-45, 120 h) | MKN45 Cell Prolif. 120 hr (Ymin-Obs) (MKN45 cells) |
| --- | --- | --- | --- | --- | --- | --- | --- |
| CO[C@H]1C[C@H](c2ccc3cc(CN4CC[C@H](Oc5ccc6c(c5)CN(C5CCC(=O)NC5=O)C6=O)C4)ccc3n2)C1 (stereo partly drawn) [drawing 579, 3-(1-oxo-5-{[(3S)-1-({2-[(1r,3r)-3-methoxycyclobutyl]quinolin-6-yl}methyl)pyrrolidin-3-yl]oxy}-2,3-dihydro-1H-isoindol-2-yl)piperidine-2,6-dione] | 21.76 | 12.8 nM | – | 4.89 nM | – | – | 8.615 |
| CNC1CCN(c2ccc3cc(CN4CC[C@H](Oc5ccc6c(c5)CN(C5CCC(=O)NC5=O)C6=O)C4)ccc3n2)CC1 (stereo partly drawn) [3-(5-{[(3S)-1-({2-[4-(methylamino)piperidin-1-yl]quinolin-6-yl}methyl)pyrrolidin-3-yl]oxy}-1-oxo-2,3-dihydro-1H-isoindol-2-yl)piperidine-2,6-dione] | – | 64.4 nM | – | – | 38.12 | 84.9 nM | 25.09 |
| Cc1nc2ccc(CN3CC[C@H](Oc4ccc5c(c4)CN(C4CCC(=O)NC4=O)C5=O)C3)cc2cc1F (stereo partly drawn) [3-(5-{[(3S)-1-[(3-fluoro-2-methylquinolin-6-yl)methyl]pyrrolidin-3-yl]oxy}-1-oxo-2,3-dihydro-1H-isoindol-2-yl)piperidine-2,6-dione] | 33.29 | 6.95 nM | 53.6 nM | – | – | – | 18.86 |
| O=C1CCC(N2Cc3cc(O[C@H]4CCN(Cc5cc6c(cn5)OCCC6)C4)ccc3C2=O)C(=O)N1 (stereo partly drawn) [3-(1-oxo-5-{[(3S)-1-({2H,3H,4H-pyrano[2,3-c]pyridin-6-yl}methyl)pyrrolidin-3-yl]oxy}-2,3-dihydro-1H-isoindol-2-yl)piperidine-2,6-dione] | 33 | 12.3 nM | 153 nM | – | – | – | 12.988 |

Now those with a lower DC50 (WEE1), led by results:

| 293T-LentiX WEE1-ePL Degradation 4 hr (Ymin) (WEE1; [1]) | DC50 (WEE1) | EC50 (MKN45 cells; [2]) | EC50 (MKN45 cells; growth inhibition) | 293T-LentiX WEE1-ePL Degradation 4 hr (Ymin) (WEE1; lower limit of the fit (Ymin=0 luciferase inhibitor, Ymax DMSO control)) | EC50 (MKN45 cells; Homo sapiens, MKN-45, 120 h) | SMILES | MKN45 Cell Prolif. 120 hr (Ymin-Obs) (MKN45 cells) |
| --- | --- | --- | --- | --- | --- | --- | --- |
| 34 | 4.32 nM | 3.91 nM | – | – | – | CO[C@@H]1CCCN(c2ccc3cc(CN4CC[C@H](Oc5ccc6c(c5)CN(C5CCC(=O)NC5=O)C6=O)C4)ccc3n2)C1 (stereo partly drawn) [3-(5-{[(3S)-1-({2-[(3R)-3-methoxypiperidin-1-yl]quinolin-6-yl}methyl)pyrrolidin-3-yl]oxy}-1-oxo-2,3-dihydro-1H-isoindol-2-yl)piperidine-2,6-dione] | 6.79 |
| 30.5 | 5.28 nM | 23.8 nM | – | – | – | N#Cc1ccc2cc(CN3CC[C@H](Oc4cc5c(cc4F)C(=O)N(C4CCC(=O)NC4=O)C5)C3)ccc2n1 (stereo partly drawn) [6-{[(3S)-3-{[2-(2,6-dioxopiperidin-3-yl)-6-fluoro-1-oxo-2,3-dihydro-1H-isoindol-5-yl]oxy}pyrrolidin-1-yl]methyl}quinoline-2-carbonitrile] | 8.55 |
| 31 | 2.69 nM | 3.32 nM | – | – | – | COC1(c2ccc3cc(CN4CC[C@H](Oc5ccc6c(c5)CN(C5CCC(=O)NC5=O)C6=O)C4)ccc3n2)CCC1 (stereo partly drawn) [3-(5-{[(3S)-1-{[2-(1-methoxycyclobutyl)quinolin-6-yl]methyl}pyrrolidin-3-yl]oxy}-1-oxo-2,3-dihydro-1H-isoindol-2-yl)piperidine-2,6-dione] | 7.4 |
